Results reported in article PMC3490914, “The Nonantibiotic Small Molecule Cyslabdan Enhances the Potency of β-Lactams against MRSA by Inhibiting Pentaglycine Interpeptide Bridge Synthesis” (PLoS ONE, 2012).

Legend:
[1] = target: T1, FemA (SAR1388) (Staphylococcus aureus, UniProt P0A0A5); assay: pull-down of purified recombinant protein on biotinylcyslabdan-immobilized avidin beads, SDS-PAGE; also from MRSA lysate with LC-MS/MS; assay type: binding
T1 construct: recombinant, C-terminal hexahistidine tag

[2] = target: T2, FemB (Staphylococcus aureus, UniProt Q2FYR1); assay: pull-down of purified recombinant protein on biotinylcyslabdan-immobilized avidin beads, SDS-PAGE (some background binding to beads alone)
T2 construct: recombinant, C-terminal hexahistidine tag

[3] = target: T1, FemA (SAR1388); assay: in vitro glycyl transfer assay with purified FemA, monoglycyl lipid II and […]-glycine, TLC/phosphoimaging; supported by pull-down with biotinylcyslabdan; assay type: biochemical

IC50 [3]	SMILES	pull-down of purified recombinant protein on biotinylcyslabdan-immobilized avidi [1]	pull-down of purified recombinant protein on biotinylcyslabdan-immobilized avidi [2]
	C=C/C(C)=C/CC1C2(C)CCCC(C)(C)C2CC(O)C1(O)CSC[C@H](NC(C)=O)C(=O)NCCOCCOCCNC(=O)CCCCC1SC[C@@H]2NC(=O)N[C@H]12 (stereo partly drawn) [biotinylcyslabdan]	Purified recombinant SAR1388 protein was then added to avidin beads onto which biotinylcyslabdan had been immobilized.	FemB was bound to only avidin beads, while the binding amount of FemB increased in the presence of biotinylcyslabdan
530 µM	C=C/C(C)=C/C[C@@H]1[C@@]2(C)CCCC(C)(C)[C@@H]2C[C@H](O)[C@]1(O)CSC[C@H](NC(C)=O)C(=O)O [cyslabdan]		
